The record followed here is patent publication US20180235914A1, “PR[…] PHA[…] OF […] A & B AGONISTS AGAINST NEURODEGENERATIVE AND NEURODEVELOPMENTAL DISEASES” (priority 2017, published 2018).

One series relates to GABA receptors. The series is described as follows: Affinity for the GABA receptors. The format is binding.
The nature of another series: Lipophilicity. Format: physicochemical. Particulars: more specifically for GS, GP and GL.
The subject of series [1] is PTZ induced behavioral effects in mice. The series is described as follows: Antagonism of Pentylenetetrazole (PTZ) induced behavioral effects in mice. The format is in vivo. To be noted: compounds 50 to 200 mg/kg (ip), PTZ 10 to 70 mg/kg (ip). How it is done: In good agreement with the above pharmacological properties, GS, GP, GL and PG, at doses of 50 to 200 mg/kg, intraperitoneal (ip), in mice antagonized all the behavioral effects (in mice) corresponding to the symptoms, in humans, announcing the development of the neurodegenerative and neurodevelopmental diseases, i.e., anxiety, fear, social disconnection, agressivity, compulsive reactions, hypermotility, stereotypic activity, pain, seizures and lethargy, appearing at various degrees according to the amplitude of the Glutamate/GABA imbalance and to the brain regions (Basal Ganglia, Hippocampus, Cortex) affected by the above imbalance. Indeed, all the above behavioral effects (obtained, in mice, by administration of the GABAergic antagonist Pentylenetetrazole (PTZ) at 10 to 70 mg/kg, (ip): with 10 to 40 mg/kg (ip) giving fear, anxiety, social disconnection, and agressivity, hypermotility and stereotypic activity—the latter being better expressed by previous (reserpine induced) hypersensibilisation of the brain DA receptors—and seizures (obtained at 50 to 70 mg/kg (ip) of PTZ), were antagonized by GS, GP, GL, and PG at 50 to 200 mg/kg (ip).

For the next series, the system named is Rats. Briefly: Animal models in Rats (haloperidol or reserpine catalepsy, reserpine palpebral ptosis, apomorphine and haloperidol stereotypies). The format is in vivo. Particulars: inferred from catalepsy, ptosis and stereotypy models.

On to `CCCCC/C=C\C/C=C\CCCCCCCC(=O)NCCCC(=O)O` [GL, GABAlinoleamide], for which the “affinities for the GABA receptors” value with GABA receptors is “low affinities”. In “Lipophilicity”, the lipophilicities result was “high lipophilicities”. The “behavioral effects obtained by PTZ (fear, anxiety, social disconnection, agressivity, hypermotility, stereotypic activity, seizures)” value in series [1] is recorded as “antagonized”. Moreover, the “preferential brain region of action” value with Rats is “preferentially acting in the striatum”.
Turning to `CCCCCCCCCCCCCCCC(=O)NCCCC(=O)O` [GP, GABApalmitamide], the “affinities for the GABA receptors” value in the series with GABA receptors is given as “low affinities”. Further, the lipophilicities result in the series “Lipophilicity” was “high lipophilicities”. For the same molecule, in series [1], the “behavioral effects obtained by PTZ (fear, anxiety, social disconnection, agressivity, hypermotility, stereotypic activity, seizures)” value is listed as “antagonized”. For the same molecule, the “preferential brain region of action” value in the series with Rats is recorded as “preferentially acting in the striatum”.
On the same counts, the results for `CCCCCCCCCCCCCCCCCC(=O)NCCCC(=O)O` [GS, GABAstearamide] are “low affinities”, “high lipophilicities”, “antagonized” and “preferentially acting in substantia nigra”.
In the same order, the values of `NC(=O)CCC/N=C(\c1ccc(Cl)cc1)c1cc(F)ccc1O` [PG, reference compound] are “low affinities”, “high lipophilicities”, “antagonized” and “preferentially acting in substantia nigra”.
